These results are taken from patent US10570117B2, “Phenylimidazole compound” (Otsuka Pharmaceutical Factory, Inc., priority 2015, dated 2020).

The nature of series [1]: Solubility in gastric juice or intestinal juice model fluid (precipitation method using DMSO). It counts as physicochemical. Conditions: room temperature. As for the experimental part: Solubility in Gastric Juice or Intestinal Juice Model Fluid
Measurement was performed by a precipitation method using DMSO. Specifically, each of the dimethyl sulfoxide (DMSO) solutions of the compounds was individually added to 1st fluid for Disintegration Test of Japanese Pharmacopoeia (pH: 1.2) or 2nd fluid for Disintegration Test of Japanese Pharmacopoeia (pH: 6.8), and the mixtures were stirred by shaking at room temperature for 24 hours. Subsequently, insoluble substances in each mixture were removed by filtration, and the UV absorption of each filtrate was measured. The obtained values were individually applied to the calibration curves of the compounds prepared in advance to calculate the concentrations of the compounds dissolved (μg/mL).

Setting [2] is: pH 1.2, simulated gastric fluid, kinetic from dmso stock, 1st fluid for Disintegration Test of Japanese Pharmacopoeia (pH: 1.2), read-out: Solubility (μg/mL) 1st fluid.
Where [3] appears, read: pH 6.8, kinetic from dmso stock, 2nd fluid for Disintegration Test of Japanese Pharmacopoeia (pH: 6.8), read-out: Solubility (μg/mL) 2nd fluid.

Converted amounts (≈) assume the structure as drawn. Where two headings read alike, the source gives them in different places.

The term melting point denotes the temperature of the solid-liquid transition. Turning to `COc1cc(-c2c[nH]c(-c3ccc(Cl)nc3)n2)ccc1OCc1ccc(C(F)(F)F)cn1` [Example 93], the melting point was above 280 °C. For the same molecule, the solubility at 24 h in series [1] (setting [2]) was 10 µg/mL (≈ 21.7 µM). Moreover, in series [1] (setting [3]), the solubility at 24 h amounted to 0.9 µg/mL (≈ 1.95 µM).
On the same counts, the results for `COc1cc(OCc2ccc(C(F)(F)F)cn2)ccc1-c1c[nH]c(-c2ccc(Cl)nc2)n1` [Example 94] are 215 to 217 °C, 8.7 µg/mL (≈ 18.9 µM) and 0.9 µg/mL (≈ 1.95 µM).
The molecule `COc1cc(-c2c[nH]c(-c3ccc(C(F)(F)F)nc3)n2)ccc1OCc1ccc(C(F)(F)F)cn1` [Example 97] gave a melting point of 201 to 203 °C. The solubility at 24 h in series [1] (setting [2]) is 15.2 µg/mL (≈ 30.7 µM). The solubility at 24 h in series [1] (setting [3]) was found to be 2.2 µg/mL (≈ 4.45 µM).
For `COc1cc(OCc2ccc(Br)cc2F)ccc1-c1c[nH]c(-c2ccncc2)n1` [Example 98], the melting point lay within 226 to 230 °C. Further, in series [1] (setting [2]), the solubility at 24 h was 37.1 µg/mL (≈ 81.7 µM). Moreover, the solubility at 24 h in series [1] (setting [3]) was 1.3 µg/mL (≈ 2.86 µM).
On the same counts, the results for `COc1cc(OCc2ncc(C(F)(F)F)cc2F)ccc1-c1cnc(-c2ccc(Cl)nc2)[nH]1` [Example 102] are 164 to 186 °C, 92.5 µg/mL (≈ 193 µM) and 8.9 µg/mL (≈ 18.6 µM).
Molecule `COc1cc(OCc2ncc(Br)cc2F)ccc1-c1cnc(-c2ccc(Cl)nc2)[nH]1` [Example 105] came in with a melting point of 219 to 225 °C. In series [1] (setting [2]), the solubility at 24 h was 27.6 µg/mL (≈ 56.4 µM). Moreover, in series [1] (setting [3]), the solubility at 24 h was below 0.3 µg/mL.
For `COc1cc(OCc2cc(C(F)(F)F)ccn2)ccc1-c1cnc(-c2ccc(F)nc2)[nH]1` [Example 114], in that order: 183 to 186 °C, 11.3 µg/mL (≈ 25.4 µM) and 2.7 µg/mL (≈ 6.08 µM).
On to `COc1cc(OCc2ccc(C(F)(F)F)cc2)ccc1-c1cnc(-c2ccc(F)nc2)[nH]1` [Example 115], for which the melting point is 125 to 135 °C. The solubility at 24 h in series [1] (setting [2]) was 15.5 µg/mL (≈ 35 µM). Also, the solubility at 24 h in series [1] (setting [3]) came out at 2 µg/mL (≈ 4.51 µM).
For `COc1cc(-c2cnc(-c3ccc(F)nc3)[nH]2)ccc1OCc1ccc(C(F)(F)F)nc1` [Example 116], in that order: 144 to 146 °C, 24.1 µg/mL (≈ 54.2 µM) and below 1.6 µg/mL.
For `COc1cc(-c2c[nH]c(-c3ccc(F)nc3)n2)ccc1OCc1ncccc1F` [Example 119], in that order: 68 to 79 °C, 44.7 µg/mL (≈ 113 µM) and 5.2 µg/mL (≈ 13.2 µM).
On the same counts, the results for `COc1cc(OCn2cccn2)ccc1-c1c[nH]c(-c2ccc(F)nc2)n1` [Example 120] are 172 to 175 °C, above 73 µg/mL and 4 µg/mL (≈ 10.9 µM).
In turn, `COc1cc(OCc2ccc(Br)cc2F)ccc1-c1c[nH]c(-c2ccc(F)nc2)n1` [Example 126] gave a melting point of 172 to 176 °C. In series [1] (setting [2]), the solubility at 24 h is 7.1 µg/mL (≈ 15 µM). Further, in series [1] (setting [3]), the solubility at 24 h stood at 5.6 µg/mL (≈ 11.9 µM).
For `COc1cc(OCc2cncc(C(F)(F)F)c2)ccc1-c1cnc(-c2ccc(F)nc2)[nH]1` [Example 137], in that order: 210 to 212 °C (dec.), 39.9 µg/mL (≈ 89.8 µM) and 36.1 µg/mL (≈ 81.2 µM).
`COc1cc(OCc2ncc(C(F)(F)F)cc2F)ccc1-c1cnc(-c2ccc(F)nc2)[nH]1` [Example 139, 3-fluoro-2-[[4-(2-(6-fluoropyridin-3-yl)-1H-imidazol-5-yl)-3-methoxyphenoxy]methyl]-5-(trifluoromethyl)pyridine]: the melting point is above 230 °C. Also, the solubility at 24 h in series [1] (setting [2]) was 5 µg/mL (≈ 10.8 µM). The solubility at 24 h in series [1] (setting [3]) is below 0.3 µg/mL.
For `COc1cc(OCc2ncc(F)cc2F)ccc1-c1cnc(-c2ccc(F)nc2)[nH]1` [Example 140], in that order: 188 to 191 °C, 7.8 µg/mL (≈ 18.9 µM) and 4.8 µg/mL (≈ 11.6 µM).
On the same counts, the results for `COc1cc(OCc2ccc(C(F)(F)F)cn2)ccc1-c1cnc(-c2ccc(C#N)nc2)[nH]1` [Example 150, 5-[5-[2-methoxy-4-((5-(trifluoromethyl)pyridin-2-yl)methoxy)phenyl]-1H-imidazol-2-yl]picolinonitrile] are 241 to 244 °C (dec.), 2.4 µg/mL (≈ 5.32 µM) and 0.3 µg/mL (≈ 0.665 µM).
The molecule `COc1cc(OCc2ccc(C(F)(F)F)cn2)ccc1-c1cn(C)c(-c2ccc(F)nc2)n1` [Example 151, 2-fluoro-5-[4-[2-methoxy-4-((5-(trifluoromethyl)pyridin-2-yl)methoxy)phenyl]-1-methyl-1H-imidazol-2-yl]pyridine] returned a melting point of 168 to 171 °C. Moreover, the solubility at 24 h in series [1] (setting [2]) was above 92 µg/mL. Besides, the solubility at 24 h in series [1] (setting [3]) worked out at 0.9 µg/mL (≈ 1.96 µM).
Turning to `COc1cc(OCc2ccc(C(F)(F)F)cn2)ccc1-c1c(C)nc(-c2ccc(F)nc2)n1C` [Example 159], the melting point lay in the range of 136 to 138 °C. The solubility at 24 h in series [1] (setting [2]) is above 94 µg/mL. Moreover, in series [1] (setting [3]), the solubility at 24 h came to 4 µg/mL (≈ 8.47 µM).
For `COc1cc(OCc2ccc(C(F)(F)F)nc2)ccc1-c1cn(C)c(-c2ccc(F)nc2)n1` [Example 163], in that order: 163 to 165 °C, above 92 µg/mL and 1.4 µg/mL (≈ 3.05 µM).
For `COCn1cc(-c2ccc(OCc3ccc(C(F)(F)F)cn3)cc2OC)nc1-c1ccc(F)nc1` [Example 166], in that order: 172 to 174 °C, above 98 µg/mL and 0.6 µg/mL (≈ 1.23 µM).
On the same counts, the results for `COc1cc(OCc2ccc(C(F)(F)F)cn2)ccc1-c1cn(C)c(-c2ccc(Cl)nc2)n1` [Example 168] are 186 to 190 °C, above 95 µg/mL and below 0.3 µg/mL.
In the case of `COc1cc(OCc2ccc(C(F)(F)F)nc2)ccc1-c1[nH]c(C2CCC(F)(F)C2)nc1Cl` (stereo not drawn) [Example 180], the melting point was in the range of 172 to 174 °C. Further, the solubility at 24 h in series [1] (setting [2]) was 89.1 µg/mL (≈ 183 µM). In addition, the solubility at 24 h in series [1] (setting [3]) was 0.4 µg/mL (≈ 0.82 µM).
For `COc1cc(OCc2ncccc2C#N)ccc1-c1[nH]c(C2CCC(F)(F)CC2)nc1Br` [Example 184], in that order: 160 to 161 °C, 96.3 µg/mL (≈ 191 µM) and 5.8 µg/mL (≈ 11.5 µM).
For `COc1cc(OCc2ccc(C(F)(F)F)nc2)c(C)cc1-c1[nH]c(C2CCC(F)(F)CC2)nc1Br` [Example 187], in that order: 195 to 196 °C, 75.6 µg/mL (≈ 135 µM) and below 0.4 µg/mL.
With `COc1cc(OCc2ccc(C(F)(F)F)nc2)c(C)cc1-c1[nH]c(C2CCC(F)(F)CC2)nc1Cl` [Example 192], the melting point fell in the range of 175 to 178 °C. In addition, the solubility at 24 h in series [1] (setting [2]) was 22.6 µg/mL (≈ 43.8 µM). Besides, the solubility at 24 h in series [1] (setting [3]) is 0.6 µg/mL (≈ 1.16 µM).
For `COc1cc(OCn2cccn2)ccc1-c1[nH]c(C2CCC(F)(F)CC2)nc1Cl` [Example 196], in that order: 182 to 184 °C, above 85 µg/mL and below 7.5 µg/mL.
In the case of `COc1cc(OCc2coc(C)n2)ccc1-c1[nH]c(C2CCC(F)(F)CC2)nc1Cl` [Example 197], the melting point is 130 to 131 °C. Moreover, the solubility at 24 h in series [1] (setting [2]) is above 88 µg/mL. The solubility at 24 h in series [1] (setting [3]) turned out to be 25.7 µg/mL (≈ 58.7 µM).
As for `COc1cc(OCc2ccc(C(F)(F)F)cn2)ccc1-c1nc(-c2ccc(F)nc2)[nH]c1Br` [Example 223], the melting point fell in the range of 176 to 178 °C. Further, the solubility at 24 h in series [1] (setting [2]) was above 105 µg/mL. The solubility at 24 h in series [1] (setting [3]) was below 0.4 µg/mL.
On the same counts, the results for `COc1cc(OCc2ccc(C(F)(F)F)nc2)ccc1-c1nc(-c2ccc(F)cn2)[nH]c1Cl` [Example 226] are 186 to 193 °C (dec.), below 8.5 µg/mL and 3.4 µg/mL (≈ 7.1 µM).
On the same counts, the results for `COc1cc(OCc2ccc(C(F)(F)F)nc2)ccc1-c1nc(-c2ccc(Cl)cn2)[nH]c1Cl` [Example 228] are 193 to 196 °C, 9.7 µg/mL (≈ 19.6 µM) and 2.6 µg/mL (≈ 5.25 µM).
Regarding `COc1cc(OC(C)c2ccc(C(F)(F)F)cc2)ccc1-c1[nH]c(-c2ccc(F)nc2)nc1Cl` (stereo not drawn) [Example 236], the melting point was in the range of 137 to 146 °C. In addition, the solubility at 24 h in series [1] (setting [2]) is below 0.3 µg/mL. Also, in series [1] (setting [3]), the solubility at 24 h came to 29.9 µg/mL (≈ 60.8 µM).
Consider `COc1cc(OC(C)c2ccc(C(F)(F)F)cn2)ccc1-c1[nH]c(-c2ccc(F)nc2)nc1Cl` (stereo not drawn) [Example 240], for which the melting point was in the range of 165 to 168 °C. The “Solubility (μg/mL) 1st fluid” value in series [1] (1st fluid for Disintegration Test of Japanese Pharmacopoeia (pH: 1.2), 24 hours) is 12 µg/mL (≈ 24.3 µM). Moreover, the “Solubility (μg/mL) 2nd fluid” value in series [1] (2nd fluid for Disintegration Test of Japanese Pharmacopoeia (pH: 6.8), 24 hours) was below 0.4 µg/mL.
In the case of `COc1cc(OCc2ncc(C(F)(F)F)cc2F)ccc1-c1[nH]c(-c2ccc(Cl)nc2)nc1Cl` [Example 245], the melting point was 116 to 131 °C. Also, the solubility at 24 h in series [1] (setting [2]) is 90.2 µg/mL (≈ 176 µM). For the same molecule, the solubility at 24 h in series [1] (setting [3]) worked out at 11.7 µg/mL (≈ 22.8 µM).
On the same counts, the results for `COc1cc(OCc2ncc(F)cc2F)ccc1-c1[nH]c(-c2ccc(Cl)nc2)nc1Br` [Example 246] are 190 to 193 °C, 15.6 µg/mL (≈ 30.7 µM) and 5 µg/mL (≈ 9.85 µM).
On the same counts, the results for `COc1cc(OCc2ncccc2C(F)(F)F)ccc1-c1[nH]c(-c2ccc(F)nc2)nc1Br` [Example 275] are 144 to 154 °C, 96 µg/mL (≈ 183 µM) and 4.2 µg/mL (≈ 8.03 µM).
On to `COc1cc(O[C@@H](C)c2ccc(C(F)(F)F)cc2)ccc1-c1[nH]c(-c2ccc(F)nc2)nc1Cl` [Example 288], for which the melting point was in the range of 137 to 139 °C. In addition, the solubility at 24 h in series [1] (setting [2]) was below 0.3 µg/mL. In addition, in series [1] (setting [3]), the solubility at 24 h was 23.4 µg/mL (≈ 47.6 µM).
